From ChEMBL document CHEMBL3714720, “Inhibiting G-protein coupled receptor 6 kinase polypeptides” (2014)
pIC50: −log10 of the molar value.

Molecular target: G protein-coupled receptor kinase 6 (Homo sapiens, UniProt P43250)
Assay: Inhibition of human recombinant full-length GST-tagged human GRK6 using peptide substrate peptide-216 incubated for 7 hrs

Chain of G protein-coupled receptor kinase 6 (P43250 whole entry): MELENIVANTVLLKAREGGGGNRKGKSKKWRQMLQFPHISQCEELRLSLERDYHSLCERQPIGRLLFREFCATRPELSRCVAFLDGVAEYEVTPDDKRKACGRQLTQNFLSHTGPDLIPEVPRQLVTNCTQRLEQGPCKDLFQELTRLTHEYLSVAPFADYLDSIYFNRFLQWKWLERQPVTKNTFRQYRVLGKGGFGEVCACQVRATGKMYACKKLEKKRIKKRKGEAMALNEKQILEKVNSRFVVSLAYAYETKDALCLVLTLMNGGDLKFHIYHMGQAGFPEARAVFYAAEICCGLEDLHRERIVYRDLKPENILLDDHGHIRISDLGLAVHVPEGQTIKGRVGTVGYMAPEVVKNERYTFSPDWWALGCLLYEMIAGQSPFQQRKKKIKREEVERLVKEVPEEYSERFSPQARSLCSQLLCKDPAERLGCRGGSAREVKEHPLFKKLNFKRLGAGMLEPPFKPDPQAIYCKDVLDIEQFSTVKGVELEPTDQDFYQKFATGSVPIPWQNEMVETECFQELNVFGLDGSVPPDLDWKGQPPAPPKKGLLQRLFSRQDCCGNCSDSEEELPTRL

Compound | pIC50
COc1ccc(-c2nnc(SCC(=O)O)[nH]2)c(OC)c1C | < 4.00
COc1ccc(-c2nnc(SCC(=O)O)[nH]2)c(OC)c1OC | < 4.00
Cc1cccc(Oc2ccc(-c3nnc(SCC(=O)O)[nH]3)cc2[N+](=O)[O-])c1 | 5.45
O=C(O)CSc1nnc(-c2cccc(C(=O)O)c2)[nH]1 | < 4.13
COc1ccc([N+](=O)[O-])cc1-c1nnc(SCC(=O)O)[nH]1 | 4.11
COc1c(F)cccc1-c1nnc(SCC(=O)O)[nH]1 | < 4.00
COc1cc(-c2nnc(SCC(=O)O)[nH]2)cc(F)c1O | 5.48
O=C(O)CSc1nnc(-c2cc(C(=O)O)ccc2O)[nH]1 | < 4.00
COc1cc([N+](=O)[O-])ccc1-c1nnc(SCC(=O)O)[nH]1 | < 4.00
O=C(O)CSc1nnc(-c2ccccc2N2CCOCC2)[nH]1 | < 4.00
COc1ccc(-c2nnc(SCC(=O)O)[nH]2)cc1[N+](=O)[O-] | 5.98
COc1cc(O)cc(OC)c1-c1nnc(SCC(=O)O)[nH]1 | < 4.00
O=C(O)CSc1nnc(-c2cc([N+](=O)[O-])ccc2O)[nH]1 | 4.85
COc1cccc(O)c1-c1nnc(SCC(=O)O)[nH]1 | < 4.00
COc1cc(-c2nnc(SCC(=O)O)[nH]2)c([N+](=O)[O-])cc1OC | < 4.00
CC(=O)CSc1nnc(-c2cccc(C)c2)[nH]1 | < 4.00
COc1ccc(NC(c2ccccn2)c2ccc3cccnc3c2O)cc1 (centres undefined) | 4.99
O=C(O)CSc1nnc(-c2ccccc2OCCN2CCCC2)[nH]1 | < 4.00
Cc1ccc(-c2nnc(SCC(=O)O)[nH]2)cc1[N+](=O)[O-] | 6.12
Cc1cccc(-c2nnc(SCCC(=O)O)n2C)c1 | < 4.00
CN(C)CCCOc1ccccc1-c1nnc(SCC(=O)O)[nH]1 | < 4.00
COc1ccc(-c2nnc(SCC(=O)O)[nH]2)c(Cl)c1OC | < 4.00

Compound | pIC50
COc1cc(-c2nnc(SCC(=O)O)[nH]2)ccc1F | 5.34
O=C(O)COc1ccccc1-c1nnc(SCC(=O)O)[nH]1 | < 4.00
O=C(O)CSc1nnc(-c2cccc([N+](=O)[O-])c2O)[nH]1 | < 4.15
Cc1cccc(-c2n[nH]c(SCC(N)=O)n2)c1 | < 4.00
O=C(O)CSc1nnc(-c2ccccc2C(=O)O)[nH]1 | < 4.00
NC(=O)c1ccccc1-c1nnc(SCC(=O)O)[nH]1 | < 4.00
COc1cccc(OC)c1-c1nnc(SCC(=O)O)[nH]1 | < 4.00
CN1CCN(c2ccc(-c3nnc(SCC(=O)O)[nH]3)c(F)c2)CC1 | < 4.00
COc1ccc(OC)c(-c2nnc(SCC(=O)O)[nH]2)c1 | < 4.00
Cc1cccc(-c2nnc(SCCC(=O)O)[nH]2)c1 | < 4.00
COC(=O)CSc1nnc(-c2cccc(C)c2)[nH]1 | < 4.00
COC(=O)c1ccccc1-c1nnc(SCC(=O)O)[nH]1 | < 4.00
Cc1cccc(-c2nnc(SCC(=O)N(C)C)[nH]2)c1 | < 4.00
Cc1coc(-c2ccccc2NS(=O)(=O)c2ccc(S(=O)(=O)N3CCCCCC3)cc2)c1 | < 4.22
CN(C)c1ccc(-c2nnc(SCC(=O)O)[nH]2)cc1 | < 4.00
Cc1cccc(-c2nnc(SCC(=O)O)n2C)c1 | < 4.00
COc1cc(OC)c(-c2nnc(SCC(=O)O)[nH]2)cc1OC | < 4.00
COc1cccc(-c2nnc(SCC(=O)O)[nH]2)c1OC | < 4.00
COc1cc(N(C)C)ccc1-c1nnc(SCC(=O)O)[nH]1 | < 4.00
Cc1cccc(-c2nnc(SC(C)C(=O)O)n2C)c1 (centres undefined) | < 4.00
COc1cc([N+](=O)[O-])cc(-c2nnc(SCC(=O)O)[nH]2)c1O | 4.46
COc1cccc(-c2nnc(SCC(=O)O)[nH]2)c1OCc1ccccc1 | < 4.00
